Results published in US20050112573A1, “Method of detecting toxic substance” (priority 2001, published 2005).

Test system: yeast genes (level of expressed mRNA)
Experiment: DNA chip analysis of expressed mRNA of yeast genes after 2 h culture with a toxic chemical substance
Type: cell-based, Saccharomyces cerevisiae S288C
How it was run: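 Values are treated-to-control fluorescence ratios from a whole-yeast-genome DNA chip (65° C, over 12 h hybridization) using Cy3/Cy5-labelled cDNA from mRNA. Log-phase S288C cells in YPD at 25° C were exposed 2 h to a toxicant at sublethal, growth-inhibiting concentration.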

HgCl2 [(3)]
The level of expressed mRNA in the presence of chemical substance/ (yeast gene YKL086W, ratio to control without chemical): 2.4
The level of expressed mRNA in the presence of chemical substance/The level of expressed mRNA in the absence of chemical substance (yeast gene YKL096W): 8.1
The level of expressed mRNA in the presence of chemical substance/ (yeast gene YKL151C, ratio to control without chemical substance, 2 h culture): 1.7
The level of expressed mRNA in the presence of chemical substance/ (yeast gene YKL153W, ratio to control without chemical substance, 2 h culture): 2.0
The level of expressed mRNA in the presence of chemical substance/The level of expressed mRNA in the absence of chemical substance (yeast gene YKL165C): 1.1
The level of expressed mRNA in the presence of chemical substance/The level of expressed mRNA in the absence of chemical substance (yeast gene YKL193C): 1.1
The level of expressed mRNA in the presence of chemical substance/ (yeast gene YKL195W, ratio to control without chemical substance, 2 h culture): 0.4
The level of expressed mRNA in the presence of chemical substance/in the absence of chemical substance (yeast gene YKR009C): 1.5
The level of expressed mRNA in the presence of chemical substance/ (yeast gene YKR091W, ratio to control without chemical): 0.9
The level of expressed mRNA in the presence of chemical substance/ (yeast gene YLR054C, ratio to control without chemical substance, 2 h culture): 0.4
The level of expressed mRNA in the presence of chemical substance/The level of expressed mRNA in the absence of chemical substance (yeast gene YLR120C): 2.4
The level of expressed mRNA in the presence of chemical substance/The level of expressed mRNA in the absence of chemical substance (yeast gene YLR136C): 0.6
The level of expressed mRNA in the presence of chemical substance/ (yeast gene YLR149C, ratio to control without chemical substance, 2 h culture): 3.4
The level of expressed mRNA in the presence of chemical substance/ (yeast gene YLR152C, ratio to control without chemical substance, 2 h culture): 1.1
The level of expressed mRNA in the presence of chemical substance/The level of expressed mRNA in the absence of chemical substance (yeast gene YLR178C): 8.8
The level of expressed mRNA in the presence of chemical substance/ (yeast gene YLR194C, ratio to control without chemical): 1.3
The level of expressed mRNA in the presence of chemical substance/The level of expressed mRNA in the absence of chemical substance (yeast gene YLR250W): 1.0
The level of expressed mRNA in the presence of chemical substance/ (yeast gene YLR324W, ratio to control without chemical substance, 2 h culture): 0.9
The level of expressed mRNA in the presence of chemical substance/The level of expressed mRNA in the absence of chemical substance (yeast gene YLR327C): 14.4
The level of expressed mRNA in the presence of chemical substance/ (yeast gene YLR350W, ratio to control without chemical substance, 2 h culture): 3.2
The level of expressed mRNA in the presence of chemical substance/in the absence of chemical substance (yeast gene YLR351C): 1.3
The level of expressed mRNA in the presence of chemical substance/The level of expressed mRNA in the absence of chemical substance (yeast gene YLR356W): 4.9
The level of expressed mRNA in the presence of chemical substance/The level of expressed mRNA in the absence of chemical substance (yeast gene YLR362W): 1.0
The level of expressed mRNA in the presence of chemical substance/in the absence of chemical substance (yeast gene YLR375W): 0.9
The level of expressed mRNA in the presence of chemical substance/ (yeast gene YLR387C, ratio to control without chemical substance, 2 h culture): 0.8
The level of expressed mRNA in the presence of chemical substance/The level of expressed mRNA in the absence of chemical substance (yeast gene YLR391W): 2.9
The level of expressed mRNA in the presence of chemical substance/The level of expressed mRNA in the absence of chemical substance (yeast gene YLR429W): 0.6
The level of expressed mRNA in the presence of chemical substance/ (yeast gene YLR460C, ratio to control without chemical substance, 2 h culture): 2.0
The level of expressed mRNA in the presence of chemical substance/ (yeast gene YML117W, ratio to control without chemical substance, 2 h culture): 0.9
The level of expressed mRNA in the presence of chemical substance/The level of expressed mRNA in the absence of chemical substance (yeast gene YMR004W): 1.3
The level of expressed mRNA in the presence of chemical substance/ (yeast gene YMR009W, ratio to control without chemical substance, 2 h culture): 0.5
The level of expressed mRNA in the presence of chemical substance/ (yeast gene YMR067C, ratio to control without chemical substance, 2 h culture): 1.1
The level of expressed mRNA in the presence of chemical substance/ (yeast gene YMR090W, ratio to control without chemical substance, 2 h culture): 2.3
The level of expressed mRNA in the presence of chemical substance/The level of expressed mRNA in the absence of chemical substance (yeast gene YMR094W): 1.3
The level of expressed mRNA in the presence of chemical substance/ (yeast gene YMR095C, ratio to control without chemical): 1.6
The level of expressed mRNA in the presence of chemical substance/ (yeast gene YMR097C, ratio to control without chemical substance, 2 h culture): 0.7
The level of expressed mRNA in the presence of chemical substance/ (yeast gene YMR102C, ratio to control without chemical substance, 2 h culture): 1.1
The level of expressed mRNA in the presence of chemical substance/The level of expressed mRNA in the absence of chemical substance (yeast gene YMR104C): 2.2
The level of expressed mRNA in the presence of chemical substance/ (yeast gene YMR107W, ratio to control without chemical substance, 2 h culture): 1.7
The level of expressed mRNA in the presence of chemical substance/ (yeast gene YMR180C, ratio to control without chemical substance, 2 h culture): 1.0
The level of expressed mRNA in the presence of chemical substance/ (yeast gene YMR184W, ratio to control without chemical substance, 2 h culture): 1.0
The level of expressed mRNA in the presence of chemical substance/ (yeast gene YMR191W, ratio to control without chemical substance, 2 h culture): 1.9
The level of expressed mRNA in the presence of chemical substance/The level of expressed mRNA in the absence of chemical substance (yeast gene YMR219W): 1.0
The level of expressed mRNA in the presence of chemical substance/The level of expressed mRNA in the absence of chemical substance (yeast gene YMR226C): 1.4
The level of expressed mRNA in the presence of chemical substance/in the absence of chemical substance (yeast gene YMR267W): 0.7
The level of expressed mRNA in the presence of chemical substance/The level of expressed mRNA in the absence of chemical substance (yeast gene YMR275C): 1.2
The level of expressed mRNA in the presence of chemical substance/The level of expressed mRNA in the absence of chemical substance (yeast gene YMR276W): 1.5
The level of expressed mRNA in the presence of chemical substance/in the absence of chemical substance (yeast gene YMR278W): 1.4
The level of expressed mRNA in the presence of chemical substance/in the absence of chemical substance (yeast gene YMR293C): 1.6
The level of expressed mRNA in the presence of chemical substance/ (yeast gene YMR295C, ratio to control without chemical substance, 2 h culture): 1.2
The level of expressed mRNA in the presence of chemical substance/The level of expressed mRNA in the absence of chemical substance (yeast gene YMR314W): 0.9
The level of expressed mRNA in the presence of chemical substance/ (yeast gene YMR316W, ratio to control without chemical substance, 2 h culture): 1.1
The level of expressed mRNA in the presence of chemical substance/The level of expressed mRNA in the absence of chemical substance (yeast gene YNL006W): 1.3
The level of expressed mRNA in the presence of chemical substance/The level of expressed mRNA in the absence of chemical substance (yeast gene YNL007C): 5.1
The level of expressed mRNA in the presence of chemical substance/ (yeast gene YNL044W, ratio to control without chemical substance, 2 h culture): 2.3
